# Reference: patent publication US20160271268A1, “NUCLEIC ACID NANOSTRUCTURES FOR IN VIVO AGENT DELIVERY” (DANA-FARBER CANCER INSTITUTE, INC., priority 2013, published 2016)
# Peptide text beside a SMILES is read from it.
# System: dendritic cells
# Assay: Oligolysine induced toxicity to dendritic cells
# Assay type: cell-based
# Settings: 1.5 μg/mL K20, different time intervals
# Method: FIGS. 15A and 15B show oligolysine induced toxicity to dendritic cells. FIG. 15A: Freshly harvested dendritic cells were incubated with 1.5 μg/mL K20 for different time intervals. […] FIG. 15B: Confocal image of dendritic cells incubated with oligolysine (K20) peptide-coated, cy5 labeled DNA nanostructure.
structure (smiles),measurement,value
NCCCC[C@H](NC(=O)[C@H](CCCCN)NC(=O)[C@H](CCCCN)NC(=O)[C@H](CCCCN)NC(=O)[C@H](CCCCN)NC(=O)[C@H](CCCCN)NC(=O)[C@H](CCCCN)NC(=O)[C@H](CCCCN)NC(=O)[C@H](CCCCN)NC(=O)[C@H](CCCCN)NC(=O)[C@H](CCCCN)NC(=O)[C@H](CCCCN)NC(=O)[C@H](CCCCN)NC(=O)[C@H](CCCCN)NC(=O)[C@H](CCCCN)NC(=O)[C@H](CCCCN)NC(=O)[C@H](CCCCN)NC(=O)[C@H](CCCCN)NC(=O)[C@H](CCCCN)NC(=O)[C@@H](N)CCCCN)C(=O)O [K20] (H-KKKKKKKKKKKKKKKKKKKK-OH),appearance of dendritic cells under a microscope,cells appeared healthy
